The assay has as its target T1, human PAR4 (Homo sapiens, UniProt Q96RI0).
T1 construct: expressed in transfected cells; host or cells: HEK293 PAR4 Clone 1.2A (BMS Arctic ID 383940)
T1 sequence (Q96RI0 18-385): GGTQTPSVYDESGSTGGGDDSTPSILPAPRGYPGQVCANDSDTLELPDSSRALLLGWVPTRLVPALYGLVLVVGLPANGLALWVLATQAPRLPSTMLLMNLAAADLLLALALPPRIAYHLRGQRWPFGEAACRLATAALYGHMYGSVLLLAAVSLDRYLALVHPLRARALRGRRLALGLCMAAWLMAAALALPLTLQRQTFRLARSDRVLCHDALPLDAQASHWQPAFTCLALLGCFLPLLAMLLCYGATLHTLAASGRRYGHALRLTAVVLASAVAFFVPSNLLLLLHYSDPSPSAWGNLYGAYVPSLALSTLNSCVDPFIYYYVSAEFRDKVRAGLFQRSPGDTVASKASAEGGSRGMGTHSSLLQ
The assay is described as follows: PAR4 FLIPR assay: antagonism of agonist-peptide-induced calcium mobilization in PAR4-expressing HEK293 cells. In kind it is cell-based. As to conditions: H-Ala-Phe(4-F)-[…]NH2-induced intracellular calcium mobilization, 11-point curves.

For orientation: IC50 means the concentration that gives 50% inhibition. `COc1ccc2nc(-c3cc(C)cc4nc(OC(F)F)cnc34)sc2c1` [Example 48, 2-(2-(difluoromethoxy)-7-methylquinoxalin-5-yl)-6-methoxybenzo[d]thiazole]: the IC50 was determined as 2.1 nM. In the case of `Cc1cc(-c2cc3cc(OCC(=O)OC(C)(C)C)ccc3o2)c2ncc(OC(F)F)nc2c1` [Example 49, tert-butyl 2-(2-(2-(difluoromethoxy)-7-methylquinoxalin-5-yl)benzofuran-5-yloxy) acetate], the IC50 worked out at 9.7 nM. The same measure for `COc1ccc2[nH]c(-c3cc(C)cc4nc(OC(F)F)cnc34)nc2c1` [Example 50, 2-(difluoromethoxy)-5-(5-methoxy-1H-benzo[d]imidazol-2-yl)-7-methylquinoxaline]: 92 nM; for `COc1cccc2sc(-c3cc(C)cc4nc(OC(F)F)cnc34)nc12` [Example 51, 2-(2-(difluoromethoxy)-7-methylquinoxalin-5-yl)-4-methoxybenzo[d]thiazole]: 180 nM. In the case of `Cc1cc(-c2nc3c(C)cccc3s2)c2ncc(OC(F)F)nc2c1` [Example 52, 2-(2-(difluoromethoxy)-7-methylquinoxalin-5-yl)-4-methylbenzo[d]thiazole], the half-maximal inhibitory concentration (IC50) came to 4.7 nM. Next, `Cc1cc(-c2nc3c(F)cccc3s2)c2ncc(OC(F)F)nc2c1` [Example 53, 2-(2-(difluoromethoxy)-7-methylquinoxalin-5-yl)-4-fluorobenzo[d]thiazole]: 9.8 nM; `CNCCOc1ccc2oc(-c3cc(C)cc4nc(OC(F)F)cnc34)cc2c1` [Example 54, 2-(2-(2-(difluoromethoxy)-7-methylquinoxalin-5-yl)benzofuran-5-yloxy)-N-methylethanamine]: 94 nM; `COc1cc(OC)c2nc(-c3cc(C)cc4nc(OC(F)F)cnc34)sc2c1` [Example 55, 2-(2-(difluoromethoxy)-7-methylquinoxalin-5-yl)-4,6-dimethoxybenzo[d]thiazole]: 14 nM. The same measure for `COc1ccc2oc(-c3cc(C)cc4nc(OC)cnc34)cc2c1` [Example 56, 2-methoxy-5-(5-methoxybenzofuran-2-yl)-7-methylquinoxaline]: 4.7 nM; for `COc1cccc2nc(-c3cc(C)cc4nc(OC(F)F)cnc34)sc12` [Example 58, 2-(2-(difluoromethoxy)-7-methylquinoxalin-5-yl)-7-methoxybenzo[d]thiazole]: 3 nM. Regarding `Cc1cc(-c2nc3cc(F)ccc3s2)c2ncc(OC(F)F)nc2c1` [Example 60, 2-(2-(difluoromethoxy)-7-methylquinoxalin-5-yl)-5-fluorobenzo[d]thiazole], the IC50 was 19 nM. Next, `COC(=O)c1cccc2nc(-c3cc(C)cc4nc(OC(F)F)cnc34)sc12` [Example 61, Methyl 2-(2-(difluoromethoxy)-7-methylquinoxalin-5-yl)benzo[d]thiazole-7-carboxylate]: 43 nM; `COC(=O)N1CCc2nc(-c3cc(C)cc4nc(OC(F)F)cnc34)sc2C1` [Example 62, methyl 2-(2-(difluoromethoxy)-7-methylquinoxalin-5-yl)-6,7-dihydrothiazolo[5,4-c]pyridine-5(4H)-carboxylate]: 100 nM; `Cc1cc(-c2nc3ccc(OCCNS(=O)(=O)c4ccccc4)cc3s2)c2ncc(OC(F)F)nc2c1` [Example 63, N-(2-(2-(2-(difluoromethoxy)-7-methylquinoxalin-5-yl)benzo[d]thiazol-6-yloxy)ethyl) benzenesulfonamide]: 2.9 nM. In the case of `Cc1cc(-c2nc3cccc(CO)c3s2)c2ncc(OC(F)F)nc2c1` [Example 64, (2-(2-(difluoromethoxy)-7-methylquinoxalin-5-yl)benzo[d]thiazol-7-yl)methanol], the IC50 worked out at 7.4 nM. Next, `COCc1cccc2nc(-c3cc(C)cc4nc(OC(F)F)cnc34)sc12` [Example 65, 2-(2-(difluoromethoxy)-7-methylquinoxalin-5-yl)-7-(methoxymethyl)benzo[d]thiazole]: 31 nM; `Cc1cc(-c2nc3cccc(CNS(=O)(=O)c4ccccc4)c3s2)c2ncc(OC(F)F)nc2c1` [Example 66, N-((2-(2-(difluoromethoxy)-7-methylquinoxalin-5-yl)benzo[d]thiazol-7-yl)methyl)benzenesulfonamide]: 28 nM. Next, `Cc1cc(-c2nc3c(F)cc(OCCNS(=O)(=O)c4ccccc4)cc3s2)c2ncc(OC(F)F)nc2c1` [Example 67, N-(2-(2-(2-(difluoromethoxy)-7-methylquinoxalin-5-yl)-4-fluorobenzo[d]thiazol-6-yloxy)ethyl)benzenesulfonamide]: 2.9 nM; `Cc1ccc2sc(-c3cc(C)cc4nc(OC(F)F)cnc34)nc2c1` [Example 68, 2-(2-(difluoromethoxy)-7-methylquinoxalin-5-yl)-5-methylbenzo[d]thiazole]: 120 nM; `COC(=O)NCCOc1cccc2nc(-c3cc(C)cc4nc(OC(F)F)cnc34)sc12` [Example 69, Methyl 2-(2-(2-(difluoromethoxy)-7-methylquinoxalin-5-yl)benzo[d]thiazol-7-yloxy)ethylcarbamate]: 36 nM. The same measure for `COC(=O)NCCOc1ccc(C)c2nc(-c3cc(C)cc4nc(OC(F)F)cnc34)sc12` [Example 70, Methyl 2-(2-(2-(difluoromethoxy)-7-methylquinoxalin-5-yl)-4-methylbenzo[d]thiazol-7-yloxy)ethylcarbamate]: 34 nM. For `Cc1cc(-c2nc3ccc(OCc4cscn4)cc3s2)c2ncc(OC(F)F)nc2c1` [Example 71, 2-(2-(difluoromethoxy)-7-methylquinoxalin-5-yl)-6-(thiazol-4-ylmethoxy) benzo[d]thiazole], the IC50 came out at 160 nM. `COc1cnc2c(-c3nc4ccc(OCCNS(=O)(=O)c5ccccc5)cc4s3)cc(C)cc2n1` [Example 72, N-(2-(2-(2-methoxy-7-methylquinoxalin-5-yl)benzo[d]thiazol-6-yloxy)ethyl)benzenesulfonamide]: the 50% inhibitory concentration (IC50) turned out to be 1 nM. The same measure for `Cc1cc(-c2nc3c(C)cc(OCCNS(=O)(=O)c4ccccc4)cc3s2)c2ncc(OC(F)F)nc2c1` [Example 73, N-(2-(2-(2-(difluoromethoxy)-7-methylquinoxalin-5-yl)-4-methylbenzo[d]thiazol-6-yloxy)ethyl)benzenesulfonamide]: 2.3 nM; for `Cc1cc(-c2nc3cccc(OCCO)c3s2)c2ncc(OC(F)F)nc2c1` [Example 74, 2-(2-(2-(difluoromethoxy)-7-methylquinoxalin-5-yl)benzo[d]thiazol-7-yloxy)ethanol]: 9.3 nM.

For the compound `COCCOc1cccc2nc(-c3cc(C)cc4nc(OC(F)F)cnc34)sc12` [Example 75, 2-(2-(difluoromethoxy)-7-methylquinoxalin-5-yl)-7-(2-methoxyethoxy)benzo[d]thiazole], the IC50 worked out at 14 nM.

Regarding `Cc1cc(-c2nc3cccc(NC(=O)OCc4ccccc4)c3s2)c2ncc(OC(F)F)nc2c1` [Example 76, benzyl 2-(2-(difluoromethoxy)-7-methylquinoxalin-5-yl)benzo[d]thiazol-7-ylcarbamate], the IC50 was determined as 2.1 nM. Next, `COCCOc1ccc2nc(-c3cc(C)cc4nc(OC)cnc34)sc2c1` [Example 77, 2-(2-methoxy-7-methylquinoxalin-5-yl)-6-(2-methoxyethoxy)benzo[d]thiazole]: 130 nM; `COCCOc1cccc2nc(-c3cc(C)cc4nc(OC)cnc34)sc12` [Example 78, 2-(2-methoxy-7-methylquinoxalin-5-yl)-7-(2-methoxyethoxy)benzo[d]thiazole]: 39 nM. Take `COC(=O)Nc1cccc2nc(-c3cc(C)cc4nc(OC(F)F)cnc34)sc12` [Example 80, Methyl 2-(2-(difluoromethoxy)-7-methylquinoxalin-5-yl)benzo[d]thiazol-7-ylcarbamate]: the IC50 turned out to be 21 nM. The same measure for `Cc1cc(-c2nc3c(C)cc(OCCNS(=O)(=O)c4ccc(F)cc4)cc3s2)c2ncc(OC(F)F)nc2c1` [Example 81, N-(2-(2-(2-(difluoromethoxy)-7-methylquinoxalin-5-yl)-4-methylbenzo[d]thiazol-6-yloxy)ethyl)-4-fluorobenzenesulfonamide]: 1.5 nM. Consider `Cc1cc(-c2nc3cccc(OCC(=O)Nc4ccccc4)c3s2)c2ncc(OC(F)F)nc2c1` [Example 82, 2-(2-(2-(difluoromethoxy)-7-methylquinoxalin-5-yl)benzo[d]thiazol-7-yloxy)-N-phenylacetamide], for which the IC50 was determined as 280 nM. The same measure for `Cc1cc(-c2nc3c(C)cc(OCCNS(=O)(=O)c4ccc(C(F)(F)F)cc4)cc3s2)c2ncc(OC(F)F)nc2c1` [Example 83, N-(2-(2-(2-(difluoromethoxy)-7-methylquinoxalin-5-yl)-4-methylbenzo[d]thiazol-6-yloxy)ethyl)-4-(trifluoromethyl)benzenesulfonamide]: 11 nM; for `Cc1cc(-c2nc3c(C)cc(OCCNS(=O)(=O)c4ccc(F)cc4F)cc3s2)c2ncc(OC(F)F)nc2c1` [Example 84, N-(2-(2-(2-(difluoromethoxy)-7-methylquinoxalin-5-yl)-4-methylbenzo[d]thiazol-6-yloxy)ethyl)-2,4-difluorobenzenesulfonamide]: 2.5 nM. Next, `Cc1cc(-c2nc3c(C)cc(OCCNS(=O)(=O)c4ccc(F)c(F)c4)cc3s2)c2ncc(OC(F)F)nc2c1` [Example 85, N-(2-(2-(2-(difluoromethoxy)-7-methylquinoxalin-5-yl)-4-methylbenzo[d]thiazol-6-yloxy)ethyl)-3,4-difluorobenzenesulfonamide]: 8.5 nM.

For the origin of these results see US12060347B2 (BRISTOL-MYERS SQUIBB COMPANY, priority 2016, dated 2024).
